# Laboratory results from patent publication US9493464B2, “Wee1 degradation inhibitors” (The Scripps Research Institute, priority 2012, dated 2016).
# Tested on: K328M-Wee1-luciferase
# Assay: Wee1-luciferase assay (stabilization of K328M-Wee1-luciferase)
# Format: cell-based
# Conditions: HeLa cells; result in words
# From the text: Steady-state level of K328M-Wee1-Luciferase (K328M-Wee1-Luc) was divided by Luciferase level (Luc) and plotted.
# Similar assays have previously been described; PubChem AID 1807.
row,SMILES,stabilization of K328M-Wee1-luciferase
1,"CCN(CC)CCNC(=O)c1c(C)[nH]c(/C=C2\C(=O)Nc3ccc(F)cc32)c1C [Sutent, reference compound]",does not stabilize K328M-Wee1-luciferase

# Same assay, conditions: at 250 nM, reported relative to SR-1277 = 100%
row,SMILES,"% Inhibition, Wee1 Degradation"
1,CC(C)n1cnc2c(NCc3nc4c(C(=O)O)cccc4[nH]3)nc(N3CCOCC3)nc21 [SR-1402],0.0%
2,NCCN1CCN(c2nc(NCc3nc4ccccc4[nH]3)c3ncn(-c4ccsc4)c3n2)CC1 [SR-1299],8.6%
3,c1ccc(-n2cnc3c(NCc4nc5ccccc5[nH]4)nc(N4CCOCC4)nc32)cc1 [SR-649967],4.0%
4,C=CCN(CC=C)c1nc(NCc2nc3ccccc3[nH]2)c2ncn(-c3ccsc3)c2n1 [SR-1295],8.2%
5,c1ccc2[nH]c(CNc3nc(N4CCCCC4)nc4c3ncn4-c3ccsc3)nc2c1 [SR-1288],10.5%
6,CC(C)n1cnc2c(NCc3nc4ccccc4[nH]3)nc(N3CCOCC3)nc21 [SR-648126],4.1%
7,c1ccc2[nH]c(CNc3nc(Nc4cnccn4)nc4c3ncn4-c3ccsc3)nc2c1 [SR-660983],2.9%
8,c1ccc2[nH]c(CNc3nc(N4CCCC4)nc4c3ncn4-c3ccsc3)nc2c1 [SR-1293],9.9%
9,CCOC(=O)c1cccc2[nH]c(CNc3nc(N4CCOCC4)nc4c3ncn4C(C)C)nc12 [SR-1283],17.0%
10,c1ccc2[nH]c(CNc3nc(NCCN4CCOCC4)nc4c3ncn4-c3ccsc3)nc2c1 [SR-1298],8.1%
11,c1ccc(N2CCN(c3nc(NCc4nc5ccccc5[nH]4)c4ncn(-c5ccsc5)c4n3)CC2)nc1 [SR-648378],4.0%
12,C[C@@H](Nc1nc(NCc2nc3ccccc3[nH]2)c2ncn(-c3ccsc3)c2n1)c1ccccc1 [SR-1289],9.2%
13,c1ccc2[nH]c(CNc3nc(N4CCSCC4)nc4c3ncn4-c3ccsc3)nc2c1 [SR-1291],11.4%
14,c1ccc2c(c1)CCN2c1nc(NCc2nc3ccccc3[nH]2)c2ncn(-c3ccsc3)c2n1 [SR-1297],7.9%
15,OCCN1CCN(c2nc(NCc3nc4ccccc4[nH]3)c3ncn(-c4ccsc4)c3n2)CC1 [SR-1296],10.0%
16,O=C(NC1CC1)c1ccc(-c2nc(NCc3nc4ccccc4[nH]3)c3ncn(-c4ccsc4)c3n2)cc1 [SR-658807],3.6%
17,O=C(O)c1cccc2[nH]c(CNc3nc(N4CCOCC4)nc4c3ncn4-c3ccsc3)nc12 [SR-1401],0.0%
18,c1cnc2ccc3[nH]c(CNc4nc(N5CCOCC5)nc5c4ncn5-c4ccsc4)nc3c2c1 [SR-1281],22.0%
19,Nc1ccc2[nH]c(CNc3nc(N4CCOCC4)nc4c3ncn4-c3ccsc3)nc2c1 [SR-1286],8.3%
20,CC(C)n1cnc2c(NCc3nc4ccccc4[nH]3)nc(Nc3ccncn3)nc21 [SR-656428],4.0%
21,CC(C)n1cnc2c(NCc3nc4ccccc4[nH]3)nc(Nc3cnccn3)nc21 [SR-660754],5.3%
22,Nc1cccc2[nH]c(CNc3nc(N4CCOCC4)nc4c3ncn4-c3ccsc3)nc12 [SR-1287],15.6%
23,CC(C)n1cnc2c(NCc3nc4ccccc4[nH]3)nc(Nc3cccnc3)nc21 [SR-655534],3.4%

# Same assay, conditions: read-out: Wee1 Stabilization
row,SMILES,EC50
1,c1ccc(-n2cnc3c(NCc4nc5ccccc5[nH]4)nc(N4CCOCC4)nc32)cc1 [SR-649967],4300 nM
2,CC(C)n1cnc2c(NCc3nc4ccccc4[nH]3)nc(N3CCOCC3)nc21 [SR-648126],5300 nM
3,c1ccc2[nH]c(CNc3nc(Nc4cnccn4)nc4c3ncn4-c3ccsc3)nc2c1 [SR-660983],3800 nM
4,c1ccc(N2CCN(c3nc(NCc4nc5ccccc5[nH]4)c4ncn(-c5ccsc5)c4n3)CC2)nc1 [SR-648378],4300 nM
5,O=C(NC1CC1)c1ccc(-c2nc(NCc3nc4ccccc4[nH]3)c3ncn(-c4ccsc4)c3n2)cc1 [SR-658807],4100 nM
6,CC(C)n1cnc2c(NCc3nc4ccccc4[nH]3)nc(Nc3ccncn3)nc21 [SR-656428],4400 nM
7,CC(C)n1cnc2c(NCc3nc4ccccc4[nH]3)nc(Nc3cnccn3)nc21 [SR-660754],4000 nM
8,CC(C)n1cnc2c(NCc3nc4ccccc4[nH]3)nc(Nc3cccnc3)nc21 [SR-655534],3800 nM

# Target: T1, CK1δ (Homo sapiens, UniProt P48730)
# T1 sequence (P48730 whole entry): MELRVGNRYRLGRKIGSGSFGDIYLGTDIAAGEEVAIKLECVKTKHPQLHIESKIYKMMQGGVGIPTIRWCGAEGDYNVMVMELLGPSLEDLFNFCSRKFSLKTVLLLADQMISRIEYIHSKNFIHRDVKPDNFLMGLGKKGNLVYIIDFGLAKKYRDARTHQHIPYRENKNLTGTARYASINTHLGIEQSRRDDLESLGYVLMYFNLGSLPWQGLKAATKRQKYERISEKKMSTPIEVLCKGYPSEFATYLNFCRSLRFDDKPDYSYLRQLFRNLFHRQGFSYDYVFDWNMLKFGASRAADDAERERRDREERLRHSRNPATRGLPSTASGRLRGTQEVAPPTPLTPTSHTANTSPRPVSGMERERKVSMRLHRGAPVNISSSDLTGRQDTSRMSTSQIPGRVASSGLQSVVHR
# Assay: In vitro kinase assay, CK1d, 32P-ATP filter binding (Reaction Biology Corporation)
# Format: biochemical
# Conditions: footnote a: determined by Reaction Biology Corporation; read-out: IC50 CK1d
# Experimental: Compounds were tested in 10-dose IC50 mode with 3-fold serial dilution starting at 50 μM. […] Reactions were carried out at 10 μM ATP. Average and standard deviations of reactions carried out in triplicate are shown.
# (§1) In vitro kinase assay to detect CK1 or FLT3 activity: CK1 and FLT3 assays as well as complete kinase profile of 296 kinases was performed by Reaction Biology Corporation. For FLT3 20 μM final Abltide was used, sequence: [[…]]. For CK1 (all isoforms) 20 μM CK1 tide was used, sequence: [KRRRAL[pS]VASLPGL] in a standard kinase assay with ^32P-ATP and purified kinase. Incorporation of ^32P-ATP into the peptide was measured after a filter-binding assay. In-house CK1d inhibition assays were performed using a standard homogenous time-resolved fluorescence resonance energy transfer (TR-FRET) format in 50 mM Hepes, pH 7.0, 2.5 mM MgCl2, 0.1 mg/ml bovine serum albumin, 1 mM DL-dithiothreitol, 0.01% Triton X-100 (all from Sigma-Aldrich). Briefly, the CK1δ substrate (DEKTDDE, containing CK1 consensus sequence; 4 μL of a 500 nM stock solution) is labeled with a small Ulight acceptor dye (PerkinElmer). In the presence of 10 μL of 10 nM CK1δ, the Ulight peptide is phosphorylated at a single amino acid that is specifically recognized by a europium chelate (Eu)-labeled phosphospecific antibody. Assays were performed in the presence of 2 μL of compound at different (measured) concentrations, and reactions were stopped by adding 10 μL of 4 nM Eu-anti-p-Topo-IIa (PerkinElmer) in Lance Detection Buffer (Perkin Elmer). Upon excitation of the Eu-labeled antibody, energy is transferred to the acceptor dye resulting in the emission of detected light at 665 nm.
row,SMILES,IC50
1,O=[N+]([O-])c1cccc2[nH]c(CNc3nc(N4CCOCC4)nc4c3ncn4-c3ccc(F)cc3)nc12 [SR-2362],1130 nM

# Target: T1, CK1δ
# Assay: In-house CK1d inhibition assay (TR-FRET)
# Format: biochemical
# Conditions: footnote b: in-house CK1d assay
# Experimental: as §1
row,SMILES,IC50
1,CN(C)C(=O)c1cccc2[nH]c(CNc3nc(N4CCNCC4)nc4c3ncn4-c3ccoc3)nc12 [SR-2928],107 nM
2,O=[N+]([O-])c1cccc2[nH]c(CNc3nc(N4CCOCC4)nc4c3ncn4-c3ccccc3F)nc12 [SR-2366],114 nM
3,COC(=O)c1cccc2[nH]c(CNc3nc(N4CCNCC4)nc4c3ncn4-c3ccoc3)nc12 [SR-2927],33 nM

# Second part, the compound after the results:
row,IC50,SMILES
1,120 nM,Clc1ccc2[nH]c(CNc3nc(N4CCCNCC4)nc4c3ncn4-c3ccoc3)nc2c1 [SR-2917]
2,190 nM,CN1CCN(c2nc(NCc3nc4cc(F)ccc4[nH]3)c3ncn(-c4cccc(F)c4)c3n2)CC1 [SR-2871]
3,75 nM,O=[N+]([O-])c1cccc2[nH]c(CNc3nc(N4CCOCC4)nc4c3ncn4-c3cc(F)cc(F)c3)nc12 [SR-2368]
4,46 nM,O=[N+]([O-])c1cccc2[nH]c(CNc3nc(N4CCOCC4)nc4c3ncn4-c3cccc(F)c3)nc12 [SR-2364]
5,62 nM,Fc1cccc(-n2cnc3c(NCc4nc5cc(F)ccc5[nH]4)nc(N4CCNCC4)nc32)c1 [SR-3163]
6,> 10000 nM,c1ccc(-c2cccc(-n3cnc4c(NCc5nc6ccccc6[nH]5)nc(N5CCOCC5)nc43)c2)cc1 [SR-3048]
7,119 nM,NC1CCN(c2nc(NCc3nc4cc(Cl)ccc4[nH]3)c3ncn(-c4ccsc4)c3n2)CC1 [SR-2875]
8,> 10000 nM,Fc1cccc(-n2cnc3c(NCc4nc5ccccc5[nH]4)nc(N4CCCCC4)nc32)c1 [SR-3005]
9,666 nM,Fc1cccc(-n2cnc3c(NCc4cccc5ccccc45)nc(N4CCOCC4)nc32)c1 [SR-3004]
10,589 nM,CCN1CCN(c2nc(NCc3nc4ccccc4[nH]3)c3ncn(-c4cccc(F)c4)c3n2)CC1 [SR-2948]
11,116 nM,c1ccc2[nH]c(CNc3nc(N4CCNCC4)nc4c3ncn4-c3ccoc3)nc2c1 [SR-2914]
12,88 nM,Fc1cccc(-n2cnc3c(NCc4nc5cc(F)ccc5[nH]4)nc(N4CCOCC4)nc32)c1 [SR-3162]
13,828 nM,CN1CCN(c2nc(NCc3nc4cc(Cl)ccc4[nH]3)c3ncn(-c4cccc(F)c4)c3n2)CC1 [SR-2870]
14,> 10000 nM,Fc1cccc(-n2cnc3c(NCc4nc5ccccc5[nH]4)nc(N4CCC(F)(F)CC4)nc32)c1 [SR-3060]
15,306 nM,CN1CCN(c2nc(NCc3nc4ccccc4[nH]3)c3ncn(-c4cccc(F)c4)c3n2)CC1 [SR-2932]
16,153 nM,Fc1cccc(-n2cnc3c(NCc4nc5c(Cl)cccc5[nH]4)nc(N4CCOCC4)nc32)c1 [SR-2950]
17,199 nM,CC1CN(c2nc(NCc3nc4ccccc4[nH]3)c3ncn(-c4ccsc4)c3n2)CCN1 (stereo not drawn) [SR-2915]
18,199 nM,Fc1cccc(-n2cnc3c(NCc4ccc5c(c4)OCO5)nc(N4CCOCC4)nc32)c1 [SR-3061]
19,37 nM,Fc1cccc(-n2cnc3c(NCc4nc5c(F)cccc5[nH]4)nc(N4CCOCC4)nc32)c1 [SR-3086]
20,830 nM,C[C@@H]1CN(c2nc(NCc3nc4cc(Cl)ccc4[nH]3)c3ncn(-c4cccc(F)c4)c3n2)C[C@H](C)O1 [SR-3096]
21,199 nM,CN1CCN(c2nc(NCc3nc4cc(C(F)(F)F)ccc4[nH]3)c3ncn(-c4ccoc4)c3n2)CC1 [SR-2867]
22,101 nM,Fc1cccc(-n2cnc3c(NCc4nc5ccccc5[nH]4)nc(N4CCOCC4)nc32)c1 [SR-2931]
23,51 nM,Clc1ccc2[nH]c(CNc3nc(N4CCNCC4)nc4c3ncn4-c3ccsc3)nc2c1 [SR-2876]
24,2410 nM,CC(C)N1CCN(c2nc(NCc3nc4ccccc4[nH]3)c3ncn(-c4cccc(F)c4)c3n2)CC1 [SR-2949]
25,360 nM,NC1CN(c2nc(NCc3nc4cc(Cl)ccc4[nH]3)c3ncn(-c4cccc(F)c4)c3n2)C1 [SR-3095]
26,150 nM,NC1CCN(c2nc(NCc3nc4cc(Cl)ccc4[nH]3)c3ncn(-c4cccc(F)c4)c3n2)C1 (stereo not drawn) [SR-3098]
27,687 nM,CCOC(=O)c1ccc2[nH]c(CNc3nc(N4CCNCC4)nc4c3ncn4-c3ccoc3)nc2c1 [SR-2916]
28,382 nM,NC1CN(c2nc(NCc3nc4ccccc4[nH]3)c3ncn(-c4cccc(F)c4)c3n2)C1 [SR-3084]
29,884 nM,Fc1cccc(-n2cnc3c(NCc4nc5ccccc5[nH]4)nc(N4CCCC4)nc32)c1 [SR-3006]
30,482 nM,OC1CN(c2nc(NCc3nc4ccccc4[nH]3)c3ncn(-c4cccc(F)c4)c3n2)C1 [SR-3087]
